Test system: Pseudomonas aeruginosa PAM 1723 strain highly expressing the drug efflux pump
Experiment: Effect of combinational use with an antimicrobial agent on multidrug resistant Pseudomonas aeruginosa (broth culture, transmittance and turbidity readout)
Type: cell-based
Settings: minimum concentration of compound required to enhance antibacterial activity, MHB, 1 × 10^6 CFU/ml; for Combination with AZT: azthreonam (AZT) at 1/8 or less of the minimum inhibitory concentration, combinational use for 18 hours; for Combination with LVFX: levofloxacin (LVFX) at 1/8 or less of the minimum inhibitory concentration, combinational use for 7.5 hours
Excerpt: Test Example 1: Effect of combinational use with an antimicrobial agent on multidrug resistant Pseudomonas aeruginosa
As multidrug resistant Pseudomonas aeruginosa, Pseudomonas aeruginosa PAM 1723 strain highly expressing the drug efflux pump was used. As antimicrobial drugs for the combinational uses, levofloxacin (LVFX) as a quinolone antibacterial agent and azthreonam (AZT) as a monobactam antibiotic were used.
Each of the compounds shown in Table 1 with Example No., which falls within the compounds of the present invention, was subjected to the measurement of its minimum concentration (µg/ml) that was required to enhance the antibacterial activity of the antibacterial agent when the test compound was used in combination with the antibacterial drug applied at a concentration of 1/4, or 1/8 or less of the minimum inhibitory concentration against the PAM 1723 strain. […] As for levofloxacin, effects were indicated as combinational uses for 7.5 hours, and as for azthreonam, effects as combinational uses for 18 hours was indicated. The Müller-Hinton broth (MHB, Difco) was used as a medium, and the inoculated amount of the bacteria was 1 × 10^6 CFU/ml. Effects were determined by optically measuring the transmittance of the bacterial culture with time, and visually observing the turbidity of the medium.

O=C(Cc1ccccc1C(=O)O)Nc1cccc(/C=C/c2nc3ccccc3o2)c1 [Example 7, 2-(2-3-[(E)-2-(1,3-Benzoxazol-2-yl)-1-ethenyl]anilino-2-oxoethyl)benzoic acid]
Combination with AZT: 5 µg/mL
Combination with LVFX: 2.5 µg/mL

CC(C)c1nc(/C=C/c2cccc(NC(=O)Cc3ccccc3C(=O)O)c2)sc1N [Example 5, 2-{2-[3-((E)-2-{5-Amino-4-isopropyl-1,3-thiazol-2-yl}-1-ethenyl)amino]-2-oxoethyl}benzoic acid]
Combination with AZT: 20 µg/mL
Combination with LVFX: 10 µg/mL

COC(=O)c1cc(NC(=O)Cc2ccccc2C(=O)O)cc(OCc2nc(C(C)C)cs2)c1 [Example 16, 2-(3-((4-Isopropyl-1,3-thiazol-2-yl)methoxy)-5-(methoxycarbonyl)anilino)-2-oxoethylbenzoic acid]
Combination with AZT: 160 µg/mL
Combination with LVFX: 160 µg/mL

O=C(Cc1ccccc1C(=O)O)Nc1cccc(C2CC2c2nc(-c3ccccc3)cs2)c1 (centres unmarked) [Example 11, 2-(2-Oxo-2-{3-[2-(4-phenyl-1,3-thiazol-2-yl)cyclopropyl]anilino}ethyl)benzoic acid]
Combination with AZT: 40 µg/mL
Combination with LVFX: >40 µg/mL

O=C(Cc1ccccc1C(=O)O)Nc1cccc(/C=C/c2nc(-c3ccncc3)cs2)c1 [Example 8, 2-[2-Oxo-2-(3-(E)-2-[4-(4-pyridyl)-1,3-thiazol-2-yl]-1-ethylanilino)ethyl]-benzoic acid]
Combination with AZT: 2.5 µg/mL
Combination with LVFX: 0.63 µg/mL

O=C(Cc1ccccc1C(=O)O)Nc1cccc(/C=C/c2nc3cccnc3s2)c1 [Example 6, 2-(2-Oxo-2-{3-[(E)-2-(pyrido[3,2-d][1,3]thiazol-2-yl)-1-ethenyl]anilino}ethyl)benzoic acid]
Combination with AZT: 5 µg/mL
Combination with LVFX: 20 µg/mL

O=C(Cc1ccccc1C(=O)O)Nc1cccc(OCc2ccc3ccccc3n2)c1 [Example 2, 2-{2-Oxo-2-[3-(2-quinolylmethoxy)anilino]ethyl}benzoic acid]
Combination with AZT: 5 µg/mL
Combination with LVFX: 20 µg/mL

O=C(Cc1ccccc1C(=O)O)Nc1cccc(/C=C/c2nc(-c3ccccc3)cs2)c1 [Example 1, 2-(2-Oxo-2-3-[(E)-2-(4-phenyl-1,3-thiazol-2-yl)-1-ethenyl]anilinoethyl)-benzoic acid]
Combination with AZT: 1.25 µg/mL
Combination with LVFX: <=0.63 µg/ml

O=C(Cc1ccccc1C(=O)O)Nc1cccc(C(=O)Nc2nc(-c3ccccc3)cs2)c1 [Example 12, 2-(2-Oxo-2-(3-((4-phenyl-1,3-thiazol-2-yl)amino)carbonylanilino)ethyl)-benzoic acid]
Combination with AZT: 20 µg/mL
Combination with LVFX: >40 µg/mL

CC(C)c1csc(/C=C/c2cncc(NC(=O)Cc3ccccc3C(=O)O)c2)n1 [Example 17, 2-[2-(5-[(E)-2-(4-Isopropyl-1,3-thiazol-2-yl)-1-ethenyl]-3-pyridylamino)-2-oxoethyl]benzoic acid]
Combination with AZT: 1.25 µg/mL
Combination with LVFX: 0.63 µg/mL

CC(C)c1csc(/C=C/c2cccc(NC(=O)Cc3ccccc3C(=O)O)n2)n1 [Example 18, 2-[2-(6-[(E)-2-(4-Isopropyl-1,3-thiazol-2-yl)-1-ethenyl]-2-pyridylamino)-2-oxoethyl]benzoic acid]
Combination with AZT: 20 µg/mL
Combination with LVFX: 10 µg/mL

O=C(Cc1ccccc1C(=O)O)Nc1cccc(CCc2nc(-c3ccccc3)cs2)c1 [Example 10, 2-(2-Oxo-2-{3-[2-(4-phenyl-1,3-thiazol-2-yl)ethyl]anilino}ethyl)benzoic acid]
Combination with AZT: 2.5 µg/mL
Combination with LVFX: 20 µg/mL

CC(C)c1nc(/C=C/c2cccc(NC(=O)Cc3ccccc3C(=O)O)c2)sc1Cl [Example 3, 2-(2-3-[(E)-2-(4-Isopropyl-5-chloro-1,3-thiazol-2-yl)-1-ethenyl]anilino-2-oxoethyl)benzoic acid]
Combination with LVFX: <=2.5 µg/ml

O=C(Cc1ccccc1C(=O)O)Nc1cccc(/C=C/c2ccc(-c3ccccc3)o2)c1 [Example 4, 2-[2-Oxo-2-{3-[(E)-(5-phenyl-2-furyl)-1-ethenyl]anilino}ethyl]benzoic acid]
Combination with AZT: 2.5 µg/mL
Combination with LVFX: 10 µg/mL

CC(C)c1nsc(COc2cc(NC(=O)Cc3ccccc3C(=O)O)c(F)cc2F)n1 [Example 13, 2-(2-2,4-Difluoro-5-[(3-isopropyl-1,2,4-thiadiazol-5-yl)methoxy]anilino-2-oxoethyl)benzoic acid]
Combination with AZT: 1.25 µg/mL
Combination with LVFX: <=0.63 µg/ml

CC(C)c1csc(/C=C/c2cncc(NC(=O)[C@H]3OC(C)(C)O[C@@H]3C(=O)O)c2)n1 [Example 15, (4S,5S)-5-[(5-[(E)-2-(4-Isopropyl-1,3-thiazol-2-yl)-1-ethenyl]-3-pyridyl-amino)carbonyl]-2,2-dimethyl-1,3-dioxolane-4-carboxylic acid]
Combination with AZT: 40 µg/mL
Combination with LVFX: 20 µg/mL

CC(C)c1cccc(COc2cccc(NC(=O)Cc3ccccc3C(=O)O)c2)n1 [Example 9, 2-(2-3-[(6-Isopropyl-2-pyridyl)methoxy]anilino-2-oxoethyl)benzoic acid]
Combination with AZT: 2.5 µg/mL
Combination with LVFX: 0.63 µg/mL

CC(C)c1csc(COc2cc(N)cc(NC(=O)Cc3ccccc3C(=O)O)c2)n1 [Example 14, 2-(3-Amino-5-((4-isopropyl-1,3-thiazol-2-yl)methoxy)anilino-2-oxoethyl)-benzoic acid]
Combination with AZT: 10 µg/mL
Combination with LVFX: 10 µg/mL

— patent EP1652839A2, “Drug efflux pump inhibitor” (priority 1999, dated 2001)
